Patent publication US8815903B2, “Indole derivative and pharmacologically acceptable salt thereof” (Kissei Pharmaceutical Co., Ltd., priority 2011, dated 2014)

How the values were obtained:
[1] = molecular target: T1, rat EP1 receptor (Rattus norvegicus, UniProt P70597); assay: Test for confirmation of EP1 receptor antagonism (inhibition of PGE2-induced increase in intracellular calcium concentration); assay type: cell-based; details: rat EP1 receptor-expressing COS-1 cells; prostaglandin E2 10 nM; fluorescent calcium indicator, FDSS 7000
T1 construct: expressed in transfected cells
T1 sequence (P70597 1-405): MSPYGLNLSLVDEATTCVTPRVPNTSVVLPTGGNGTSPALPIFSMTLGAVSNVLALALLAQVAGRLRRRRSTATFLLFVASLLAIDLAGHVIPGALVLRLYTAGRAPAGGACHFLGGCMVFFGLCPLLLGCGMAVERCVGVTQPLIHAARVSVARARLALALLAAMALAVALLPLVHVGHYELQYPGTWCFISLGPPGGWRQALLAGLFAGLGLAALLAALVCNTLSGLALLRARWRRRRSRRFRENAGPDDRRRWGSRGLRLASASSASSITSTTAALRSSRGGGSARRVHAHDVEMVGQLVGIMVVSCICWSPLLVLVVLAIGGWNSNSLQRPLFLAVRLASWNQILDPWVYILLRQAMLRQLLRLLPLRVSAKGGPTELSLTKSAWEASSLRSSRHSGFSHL
Protocol: Test for Confirmation of EP1 Receptor Antagonism
(1) Preparation of Rat EP1 Expression Vector
Using Rat Kidney BD Marathon-Ready cDNA (Nippon Becton Dickinson Company, Ltd.) as a template, a forward primer shown in (SEQ ID NO:1), and a reverse primer shown in (SEQ ID NO:2), a first run of PCR was carried out using KOD-Plus-Ver 2.0 (Toyobo Co., Ltd.). Further, using this amplification product as a template, a forward primer shown in (SEQ ID NO:3), and a reverse primer shown in (SEQ ID NO:4), a second run of PCR was carried out in the same manner. The amplification product obtained by the second run of PCR was incorporated into a vector (pcDNA3.1 D/V5-His-TOPO (registered trademark), Invitrogen Japan K. K.). By a conventional method, the vector containing this amplification product was introduced to E. coli (One Shot TOP 10 Competent Cells, Invitrogen Corporation) to transform. This transformed E. coli was cultured in an LB agar medium for one day. After the culture, colonies were selected and cultured in an LB liquid medium containing 50 μg/mL of ampicillin. After the culture, the vector was purified using a QIAprep Spin Miniprep Kit (Qiagen K. K.). The base sequence of the insertion site of this vector (SEQ ID NO:5) was compared with the rat EP1 base sequence (Ptger1) registered as Accession No. NM_013100 in publicly-known database (NCBI), and as a result, they all matched except for a single base. Further, the amino acid sequence translated by the base sequence completely matched the amino acid sequence of the rat EP1 receptor registered as an NCBI Accession No. NP_037232. Therefore, it was confirmed that the cloned gene sequence was a base sequence of the rat EP1 receptor and the obtained amino acid sequence was that of the rat EP1 receptor. The pcDNA3.1 D/V5-His-TOPO (registered trademark) to which the nucleic acid shown in (SEQ ID NO:5) had been inserted was taken as a rat EP1-expressing vector.
(2) Preparation of Rat EP1 Receptor-Expressing Cells
COS-1 cells (Dainippon Sumitomo Pharma Co., Ltd.) were cultured until they reached confluence in an incubator at 37° C. under a 5% CO2 gas condition, using a D-MEM liquid medium (high glucose and L-glutamine contained, Invitrogen Corporation) to which a penicillin-streptomycin solution (Invitrogen Corporation, final concentration: 100 U/mL as benzylpenicillin; 100 μg/mL as streptomycin) as an antibiotic, MEM nonessential amino acids (Invitrogen Corporation, final concentration: 0.1 mM), and fetal calf serum (Sanko Junyaku Co., Ltd., final concentration: 10%) were added.
The cells that had reached confluence were stripped with 0.05% trypsin/0.53 mM EDTA.4Na, and resuspended in a D-MEM liquid medium (high glucose and L-glutamine contained, Invitrogen Corporation) to which an MEM nonessential amino acid (final concentration: 0.1 mM) and fetal calf serum (final concentration: 10%) were added. In each well of a Poly D-lysine-coated 96-well microplate (BD BioCoat (registered trademark), Nippon Becton Dickinson Company, Ltd.), this resuspended cell suspension culture was prepared to be 5×10^4 cells/well in 100 μL of the liquid medium, and 100 μL of the cell suspension was seeded on each well. After seeding, the cells were cultured in an incubator at 37° C. under a 5% CO2 gas condition. At a point when the cells for introduction of a rat EP1-expressing vector were adhered (about 2 hours after seeding), introduction of the rat EP1-expressing vector was carried out in the following order.
For introduction of the rat EP1-expressing vector, Lipofectamine 2000 (Invitrogen Japan K. K.) was used. The rat EP1-expressing vector was diluted with OPTI-MEM (registered trademark) I Reduced-Serum Medium (Invitrogen Japan K. K.) to 200 ng/25 μL/well, and at the same time, Lipofectamine 2000 (Invitrogen Japan K. K.) was also diluted with OPTI-MEM (registered trademark) I Reduced-Serum Medium (Invitrogen Japan K. K.) to 0.5 μL/25 μL/well, followed by incubation at room temperature for 5 minutes. […]

[2] = test system: Sulprostone-Induced Bladder Contraction; assay: Inhibitory effect of compound on sulprostone-induced bladder contraction; assay type: in vivo, rat; details: female SD rats, urethane anesthesia, sulprostone 0.3 mg/kg s.c., test agent 1.0 mg/kg intravenously; for Bladder Contraction Inhibition Rate 15 minutes: 15 minutes from administration; for Bladder Contraction Inhibition Rate 60 minutes: 60 minutes from administration
From the text: Inhibitory Effect of Compound on Sulprostone-Induced Bladder Contraction
Female SD rats were used. Under urethane anesthesia (1.25 g/kg, administered subcutaneously), a tracheal cannula (Size 8, HIBIKI) and a femoral vein cannula for administration (23 G needle-equipped PESO) were inserted thereinto. The bladder cannula (PESO) was inserted from the bladder apex. The bladder cannula was connected to a three-way stopcock, and then, one was connected to a pressure transducer and the other was connected to a syringe filled with saline. Saline was injected to the bladder at an injection rate of 3.6 mL/hour and the bladder contraction pressure was recorded at the time of injection with a recorder (RECTI-HORITZ-8K, NEC Corporation). After 10 minutes from stabilization of the bladder contraction pressure during urination, sulprostone was administered subcutaneously (0.3 mg/kg). Then, at the time point when the bladder contraction pressure became constant, a test agent was administered intravenously (1.0 mg/kg). An average bladder contraction pressure during the 10 minute period before administration of sulprostone was taken as a baseline (0%). Further, an average bladder contraction pressure during the 10 minute period directly before administration of the test agent was taken as a maximum bladder contraction pressure (100%). The average bladder contraction pressures were measured during 5 minutes before and after at 15 minutes and 60 minutes from administration of the test agent. The ratio of this measured value to the maximum bladder contraction pressure was calculated by the following equation and taken as an average bladder contraction rate after administration of the test agent: (Average Bladder Contraction Rate after Administration of Test Agent (%))=[(Average Bladder Contraction Pressure after Administration of Test Agent)/(Maximum Bladder Contraction Pressure)]×100 EQUATION 1
In addition, the difference between the maximum bladder contraction rate (100%) and the average bladder contraction rate (%) after administration of the test agent was calculated by the following equation and taken as a bladder contraction inhibition rate of the test agent: (Bladder Contraction Inhibition Rate)=100%−(Average Bladder Contraction Rate after Administration of Test Agent (%)) EQUATION 2

Structure (SMILES) | IC50 [1] | Bladder Contraction Inhibition Rate 15 minutes [2] | Bladder Contraction Inhibition Rate 60 minutes [2]
COc1cc2[nH]c(C3(C)CC3)c(Cc3cccc(-c4nnn[nH]4)n3)c2cc1Cl [Example 20-3, 5-chloro-6-methoxy-2-(1-methylcyclopropyl)-3-[6-(1H-tetrazol-5-yl)pyridin-2-ylmethyl]-1H-indole] | 27 nM | 71.7% | 50.0%
CCS(=O)(=O)NC(=O)c1cccc(Cc2c(-c3ccsc3)[nH]c3cc(OC)ccc23)n1 [Example 3-35, N-ethanesulfonyl-6-(6-methoxy-2-thiophen-3-yl-1H-indol-3-ylmethyl)pyridine-2-carboxamide] | 46 nM | 45.9% | 45.1%
COc1ccc2c(Cc3cccc(-c4noc(=O)[nH]4)n3)c(-c3ccccc3)[nH]c2c1 [Example 7-1, 3-[6-(6-Methoxy-2-phenyl-1H-indol-3-ylmethyl)pyridin-2-yl]-4,5-dihydro-1,2,4-oxadiazol-5-one] | 26 nM | 66.3% | 83.0%
COc1ccc2c(Cc3cccc(-c4nnn[nH]4)n3)c(C3(C)CC3)[nH]c2c1 [Example 17-11, 6-methoxy-2-(1-methylcyclopropyl)-3-[6-(1H-tetrazol-5-yl)pyridin-2-ylmethyl]-1H-indole] | 11 nM | 92.8% | 100.9%
CCS(=O)(=O)NC(=O)c1cccc(Cc2c(-c3ccccc3)[nH]c3cc(OC)ccc23)n1 [Example 3-6] | 18 nM | 67.5% | 63.6%
Cc1ccc2c(Cc3cccc(-c4nnn[nH]4)n3)c(C3(C)CC3)[nH]c2c1 [Example 17-12, 6-methyl-2-(1-methylcyclopropyl)-3-[6-(1H-tetrazol-5-yl)pyridin-2-ylmethyl]-1H-indole] | 14 nM | 81.9% | 74.7%
COc1ccc2c(Cc3cccc(-c4noc(=O)[nH]4)n3)c(C3(C)CC3)[nH]c2c1 [Example 12-14] | 39 nM | 80.5% | 59.1%
c1ccc(-c2[nH]c3cc(C4CC4)ccc3c2Cc2cccc(-c3nnn[nH]3)n2)cc1 [Example 5-1, 6-Cyclopropyl-2-phenyl-3-[6-(1H-tetrazol-5-yl)pyridin-2-ylmethyl]-1H-indole] | 61 nM | 82.8% | 91.6%
CS(=O)(=O)NC(=O)c1cccc(Cc2c(-c3ccccc3)[nH]c3cc(C4CC4)ccc23)n1 [Example 2-2, 6-(6-Cyclopropyl-2-phenyl-1H-indol-3-ylmethyl)-N-methanesulfonylpyridine-2-carboxamide] | 29 nM | 90.0% | 70.4%
Cc1ccc2c(Cc3cccc(C(=O)NS(C)(=O)=O)n3)c(-c3ccccc3)[nH]c2c1 [Example 3-1, N-Methanesulfonyl-6-(6-methyl-2-phenyl-1H-indol-3-ylmethyl)pyridine-2-carboxamide] | 33 nM | 77.3% | 78.2%
COc1ccc2c(Cc3cccc(C(=O)NC#N)n3)c(-c3ccccc3)[nH]c2c1 [Example 10, N-Cyano-6-(6-methoxy-2-phenyl-1H-indol-3-ylmethyl)pyridine-2-carboxamide] | 26 nM | 82.9% | 90.7%
COc1ccc2c(Cc3cccc(-c4nnn[nH]4)n3)c(-c3ccoc3)[nH]c2c1 [Example 5-11, 2-furan-3-yl-6-methoxy-3-[6-(1H-tetrazol-5-yl)pyridin-2-ylmethyl]-1H-indole] | 5.7 nM | 99.0% | 99.8%
Cc1ccc2c(Cc3cccc(-c4nnn[nH]4)n3)c(-c3ccccc3)[nH]c2c1 [Example 5-3, 6-methyl-2-phenyl-3-[6-(1H-tetrazol-5-yl)pyridin-2-ylmethyl]-1H-indole] | 15 nM | 78.2% | 75.8%
COc1cc2[nH]c(-c3ccccc3)c(Cc3cccc(C(=O)NS(C)(=O)=O)n3)c2cc1F [Example 3-9, 6-(5-fluoro-6-methoxy-2-phenyl-1H-indol-3-ylmethyl)-N-methanesulfonylpyridine-2-carboxamide] | 25 nM | 76.4% | 78.9%
COc1ccc2c(Cc3cccc(-c4nnn[nH]4)n3)c(-c3ccccc3)[nH]c2c1 [Example 5-2, 6-methoxy-2-phenyl-3-[6-(1H-tetrazol-5-yl)pyridin-2-ylmethyl]-1H-indole] | 4.7 nM | 88.2% | 76.2%
O=c1[nH]c(-c2cccc(Cc3c(-c4ccoc4)[nH]c4cc(C5CC5)ccc34)n2)no1 [Example 12-13] | 26 nM | 72.9% | 96.0%
